Measured values published in patent US9127018B2, “Solid forms of ortataxel” (Indena S.p.A., priority 2008, dated 2015).

Test: physical and chemical stability of the solid form
Assay type: physicochemical
Details: solid form prepared with traces of an organic acid (citric acid); storage conditions not given

Which “chemical and physical stability” value does the source give for `CC(=O)O[C@H]1C(=O)[C@@]2(C)[C@H]([C@H](OC(=O)c3ccccc3)[C@]34OC(=O)O[C@H]3[C@H](OC(=O)[C@H](O)[C@H](CC(C)C)NC(=O)OC(C)(C)C)C(C)=C1C4(C)C)[C@]1(OC(C)=O)CO[C@@H]1C[C@@H]2O` [Form A, 13-(N-Boc-β-isobutylserinyl)-14-β-hydroxybaccatin III 1, 14-carbonate] here?
The value was “at least 36 months”.
